Assay results from publication PMC10905675, “INX-315, a Selective CDK2 Inhibitor, Induces Cell Cycle Arrest and Senescence in Solid Tumors” (Cancer Discovery, 2023).
Read-outs that look alike come from different tables or passages of the source.

Legend:
pKa = assay type: physicochemical
OVCAR3 cells = assay: Cell cycle flow cytometry; assay type: cell-based; settings: 24 hours, as little as 30–100 nmol/L
[1] = Microsomal stability assay; assay type: in vitro ADME
Description: Microsomal stability was determined by Absorption Systems (Exton, PA). INX-315 was tested in mixed-gender human liver microsomes (Lot #1010420), male Sprague-Dawley rat liver microsomes (Lot #1910100), male CD-1 mouse liver microsomes (Lot #2010017), and male beagle dog liver microsomes (Lot #2010046) were purchased from XenoTech/BioIVT by Absorption Systems. The reaction mixture, minus NADPH, was prepared as described below. The test article was added into the reaction mixture at a final concentration of 1 µmol/L. The control compound, testosterone, was run simultaneously with the test article in a separate reaction. The reaction mixture (without cofactor) was equilibrated in a shaking water bath at 37°C for 5 minutes. The reaction was initiated by the addition of the cofactor, and the mixture was incubated in a shaking water bath at 37°C. Aliquots (100 µL) were withdrawn at 0, 10, 20, 30, and 60 minutes. Test article and testosterone samples were immediately combined with 400 µL of ice-cold 50/50 acetonitrile (ACN)/H2O containing 0.1% formic acid and internal standard to terminate the reaction. The samples were then mixed and centrifuged to precipitate proteins. All samples were assayed by LC-MS/MS using electrospray ionization. The peak area response ratio (PARR) of analyte to internal standard at each time point was compared to the PARR at time 0 to determine the percent remaining at each time point. Half-lives and clearance were calculated using GraphPad software (RRID:SCR_002798), fitting to a single-phase exponential decay equation.

all other targets = assay: SelectScreen follow-up dose-response; assay type: biochemical; settings: dose-response 50 pmol/L to 1 µmol/L; kinases with ≥80% inhibition other than CDK2 complexes and CSF1R
Source text: (§1) INX-315 was first evaluated in the SelectScreen Biochemical Kinase Profiling at Thermo Fisher Scientific (Madison, WI). The primary screen consisted of INX-315 dosed at a single concentration of 100 nmol/L in 1% DMSO across each platform within the SelectScreen array of assays, LanthaScreen Eu Kinase Binding Assay; AdaptaScreen; and Z'LyteScreen using preestablished conditions at Thermo Fisher Scientific as shown in Supplementary Table S2. […] The follow-up screen consisted of 10-point dose–response curves for INX-315 from 1 µmol/L to 0.0495 nmol/L.

CSF1R = CSF1R (Homo sapiens, UniProt P07333); assay: SelectScreen follow-up dose-response; assay type: biochemical; settings: dose-response 50 pmol/L to 1 µmol/L
Source text: as §1

CDK2/cyclin A1/E1/O = CDK2/cyclin A1/E1/O (Homo sapiens, UniProt P24941); assay: SelectScreen follow-up dose-response; assay type: biochemical; settings: dose-response 50 pmol/L to 1 µmol/L
Source text: as §1

[2] = test system: five lines without CCNE1 amplification (ovarian cancer); assay: CellTiter Glo viability assay; assay type: cell-based; settings: 144 h, six days
MCF7 Fulv-resistant = assay: Cell number dose-response; assay type: cell-based; settings: Homo sapiens, MCF7, read-out: IC50 (nmol/L): MCF7
Source text: (§2) MCF7 abemaciclib-resistant cells were generated by continuous treatment with abemaciclib at a concentration of 250 nmol/L for 72 days, followed by 500 nmol/L for 48 days. MCF7 fulvestrant-resistant cells were generated by continuous treatment of 100 nmol/L Fulvestrant for 125 days. MCF7 abemaciclib/fulvestrant-resistant cells were generated by treating abemaciclib-resistant cells continuously with 100 nmol/L fulvestrant for 137 days. T47D abemaciclib-resistant lines were generated by continuous treatment with abemaciclib at a concentration of 500 nmol/L for 73 days. T47D fulvestrant–resistant cells were generated by continuous treatment with 100 nmol/L fulvestrant for 68 days. T47D abemaciclib/fulvestrant-resistant cells were generated by treating abemaciclib-resistant cells with continuous treatment of 100 nmol/L Fulvestrant for 60 days. Resistant cell lines were cultured in medium containing drug(s) that the line is resistant to and further authenticated using short tandem repeat profiling.
(§3) An exception to this is MCF7PDRCl5-1 cells which were first cultured for 5 days without palbociclib then plated as described. MCF7PDRCl5-1 cells were treated with either a dose curve of the indicated CDK4/6i or a dose curve of INX-315 + 1 µmol/L of the indicated CDK4/6i. Cell viability was determined using the CellTiter-Glo assay (Promega, G9241) following manufacturer's instructions. Plates were processed on either BioTek Synergy2 multi-mode (Agilent) or ClarioSTAR (BMG Labtech) plate readers. T47D and MCF7 cells were seeded into […] plates using BioTek 406 (Aglient) and treated with a ten-point dose concentration from 10 µmol/L to 0.3 nmol/L of INX-315 for 2× doubling times. Plates were fixed with 4% PFA and stained with Rhodamine-Phalloidin (Bio-Trend, 00027) and DAPI (5 mg/mL, Invitrogen, catalog no. D1306). Plates were imaged using CellInsight CX7 LZR and DAPI-positive cells were counted using Thermo Fisher Scientific HCS Studio Cell Analysis Software.

MCF7 Parent = assay: Cell number dose-response; assay type: cell-based; settings: Homo sapiens
Source text: as §2, §3

T47D Parent = assay: Cell number dose-response; assay type: cell-based; settings: Homo sapiens
Source text: as §2, §3

T47D Abema-resistant = assay: Cell number dose-response; assay type: cell-based; settings: Homo sapiens, read-out: IC50 (nmol/L): T47D
Source text: as §2, §3

T47D Fulv-resistant = assay: Cell number dose-response; assay type: cell-based; settings: Homo sapiens, read-out: IC50 (nmol/L): T47D
Source text: as §2, §3

MCF7 Abema-resistant = assay: Cell number dose-response; assay type: cell-based; settings: Homo sapiens, MCF7, read-out: IC50 (nmol/L): MCF7
Source text: as §2, §3

[3] = test system: CDK4/6-resistant breast cancer cells; assay: Cell number dose-response (discussion summary); assay type: cell-based; settings: addition of INX-315 to CDK4/6-resistant cells
Description: as §3

CSF1R, sequence (P07333 20-972): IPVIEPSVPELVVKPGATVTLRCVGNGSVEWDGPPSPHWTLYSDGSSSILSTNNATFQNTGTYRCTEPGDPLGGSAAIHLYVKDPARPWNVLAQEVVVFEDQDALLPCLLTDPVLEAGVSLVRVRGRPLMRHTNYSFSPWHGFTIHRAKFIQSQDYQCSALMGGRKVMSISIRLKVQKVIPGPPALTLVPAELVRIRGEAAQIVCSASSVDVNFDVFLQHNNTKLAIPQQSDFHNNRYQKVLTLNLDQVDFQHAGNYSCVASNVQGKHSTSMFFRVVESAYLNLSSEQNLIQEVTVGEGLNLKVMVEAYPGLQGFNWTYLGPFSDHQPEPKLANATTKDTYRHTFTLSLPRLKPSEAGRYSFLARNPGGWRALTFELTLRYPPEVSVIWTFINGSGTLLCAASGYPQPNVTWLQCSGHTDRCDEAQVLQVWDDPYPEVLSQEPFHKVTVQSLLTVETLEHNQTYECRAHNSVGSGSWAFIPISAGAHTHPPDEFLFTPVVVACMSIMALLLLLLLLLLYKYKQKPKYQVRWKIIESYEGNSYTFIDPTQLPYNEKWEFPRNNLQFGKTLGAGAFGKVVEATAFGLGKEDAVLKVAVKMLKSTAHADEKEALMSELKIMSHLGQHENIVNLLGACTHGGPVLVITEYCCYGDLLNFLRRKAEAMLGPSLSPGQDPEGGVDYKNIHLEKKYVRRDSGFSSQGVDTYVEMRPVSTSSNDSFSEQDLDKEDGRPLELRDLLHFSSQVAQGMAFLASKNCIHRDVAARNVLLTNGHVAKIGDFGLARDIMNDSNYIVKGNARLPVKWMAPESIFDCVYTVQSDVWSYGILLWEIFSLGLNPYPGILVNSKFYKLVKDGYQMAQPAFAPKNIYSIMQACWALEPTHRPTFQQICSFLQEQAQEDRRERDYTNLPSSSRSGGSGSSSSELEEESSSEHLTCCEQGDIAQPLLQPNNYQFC

With `NS(=O)(=O)c1ccc(Nc2ncc3cc4n(c3n2)C2(CCCCC2)C(=O)NN4)cc1` [INX-315] the pKa (pKa; read-out: pKa (acidic)) was 10.4, the pKa (pKa; read-out: pKa (basic)) was 5.08 and the cell cycle effect (OVCAR3 cells) was “potent G1 arrest”. For the same compound, the half-life at 1 µmol/L ([1]; both sexes, human, liver microsomes, 1 µmol/L, 60 min incubation, read-out: Half-life) was > 60 min, the half-life at 1 µmol/L ([1]; both sexes, human, liver microsomes, longer than the duration of the experiment, read-out: calculated half-life (in parenthesis)) was 107 min and the half-life at 1 µmol/L ([1]; male, CD-1, liver microsomes, Mouse microsomes, 60 min incubation) was 26.4 min. The half-life at 1 µmol/L ([1]; male, Sprague-Dawley, rat, liver microsomes, 1 µmol/L, 60 min incubation, read-out: Half-life) was > 60 min, the half-life at 1 µmol/L ([1]; male, Sprague-Dawley, rat, liver microsomes, longer than the duration of the experiment, read-out: calculated half-life (in parenthesis)) was 66.6 min and the half-life at 1 µmol/L ([1]; male, beagle, dog, liver microsomes, 1 µmol/L, 60 min incubation, read-out: Half-life) was > 60 min. For the same compound, the half-life at 1 µmol/L ([1]; male, beagle, dog, liver microsomes, longer than the duration of the experiment, read-out: calculated half-life (in parenthesis)) was 80.6 min, the IC50 (all other targets) was > 10 nM and the IC50 (CSF1R) was 2.29 nM. The IC50 (CDK2/cyclin A1/E1/O) was ≤ 4 nM, the IC50 ([2]; read-out: IC50, range) was 159 to 3560 nM and the IC50 ([2]; read-out: mean IC50) was 1440 nM. For the same compound, the IC50 (MCF7 Fulv-resistant) was 3470 nmol/L, the IC50 (MCF7 Parent; MCF7, read-out: IC50 (nmol/L): MCF7, Parent + abema: 500 nmol/L abemaciclib concurrently) was 515 nmol/L and the IC50 (MCF7 Parent; MCF7, read-out: IC50 (nmol/L): MCF7, Parent cells in DMSO) was 267 nmol/L. For the same compound, the IC50 (T47D Parent; read-out: IC50 (nmol/L): T47D, Parent + abema: 500 nmol/L abemaciclib concurrently) was 332 nmol/L, the IC50 (T47D Parent; read-out: IC50 (nmol/L): T47D, Parent cells in DMSO) was 360 nmol/L and the IC50 (T47D Abema-resistant) was 7.4 nmol/L. The IC50 (T47D Fulv-resistant) was 106 nmol/L, the IC50 (MCF7 Abema-resistant) was 45 nmol/L and the IC50 [3] was < 25 nM.
